According to patent publication US12291518B2, “Thyroid hormone receptor agonists and use thereof” (Eccogene Inc., priority 2020, dated 2025):
Like-named read-outs stand apart in the source and are kept apart here.

Legend:
THR alpha-LBD = target: T1, THR alpha-LBD (Homo sapiens, UniProt P10827); assay: THR-α Coactivator Peptide Recruitment Assay (LanthaScreen TR-FRET); assay type: biochemical
T1 construct: except that THR alpha-LBD of a final concentration 0.25 nM was used; purchased Invitrogen PV4687
T1 sequence (P10827 163-410 isoform P10827-2 limits assumed, other chains not shown): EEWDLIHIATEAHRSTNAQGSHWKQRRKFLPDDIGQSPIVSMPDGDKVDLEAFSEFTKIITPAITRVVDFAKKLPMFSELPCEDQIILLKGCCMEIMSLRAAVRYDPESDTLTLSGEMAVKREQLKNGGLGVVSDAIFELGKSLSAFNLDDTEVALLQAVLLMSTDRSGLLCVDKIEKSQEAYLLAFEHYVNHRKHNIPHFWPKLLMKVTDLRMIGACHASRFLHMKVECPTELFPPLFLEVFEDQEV
Method: (§1) A time-resolved FRET (TR-FRET) assay was used to test representative compounds of the application.
(§2) THR-β Coactivator Peptide Recruitment Assay were conducted by using Invitrogen's LanthaScreen™ TR-FRET Thyroid Receptor beta Assay Kit (Catalog no. PV4686). Binding of an agonist to the nuclear receptor causes a subsequent binding of a coactivator peptide, resulting in fluorescence energy transfer from the labelled nuclear receptor to the proximal coactivator peptide, which reflects the binding affinity of the agonist and the nuclear receptor. The assay was conducted by following the manufacturer's instructions. Briefly, THR beta-LBD (the final concentration is 0.5 nM) was added to the 384-well assay plate containing test compounds, followed by addition of Fluorescein-SRC2-2 coactivator peptide and terbium (Tb)-labeled anti-GST antibody. The final concentration of THR beta-LBD, Fluorescein-SRC2-2 coactivator peptide and terbium (Tb)-labeled anti-GST antibody is 0.5 nM, 0.1 nM and 2 nM, respectively. After a gentle mix and incubation at room temperature for 2 h, the signal was read on the EnVision Multilabel Plate Reader at wavelengths of 520 nm and 495 nm. TR-FRET ratio was calculated by dividing the emission signal at 520 nm and the emission signal at 495 nm, and then was plotted against a sigmoidal dose response curve (four parameters, GraphPad™ Prism 8) to determine the EC50 value.
THR-α Coactivator Peptide Recruitment Assay were conducted by using Invitrogen's LanthaScreen™ TR-FRET Thyroid Receptor alpha Assay Kit (Catalog no. PV4687), following the same method described above except that THR alpha-LBD of a final concentration 0.25 nM was used.

THR beta-LBD = target: T2, THR beta-LBD (Homo sapiens, UniProt P10828); assay: THR-β Coactivator Peptide Recruitment Assay (LanthaScreen TR-FRET); assay type: biochemical
T2 construct: THR beta-LBD (the final concentration is 0.5 nM) was added to the 384-well assay plate; purchased Invitrogen PV4686
T2 sequence (P10828 217-461 limits assumed): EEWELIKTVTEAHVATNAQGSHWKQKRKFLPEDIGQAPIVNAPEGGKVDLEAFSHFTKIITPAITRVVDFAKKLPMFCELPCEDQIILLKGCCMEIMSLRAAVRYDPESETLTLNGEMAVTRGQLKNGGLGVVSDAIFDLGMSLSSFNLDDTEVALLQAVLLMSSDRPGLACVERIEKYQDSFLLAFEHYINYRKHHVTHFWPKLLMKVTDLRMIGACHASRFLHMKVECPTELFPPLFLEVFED
Method: as §1, §2

[1] = TR-FRET coactivator recruitment, THR alpha-LBD 0.25 nM
[2] = TR-FRET coactivator recruitment, THR alpha-LBD 0.25 nM, read-out: THRα EC50
[3] = TR-FRET coactivator recruitment, THR beta-LBD 0.5 nM
[4] = TR-FRET coactivator recruitment, THR beta-LBD 0.5 nM, read-out: THRβ EC50

| SMILES | THRα Emax (THR alpha-LBD; [1]) | EC50 (THR alpha-LBD; [2]) [nM] | THRβ Emax (THR beta-LBD; [3]) | EC50 (THR beta-LBD; [4]) [nM] | EC50 (THR alpha-LBD) [nM] | EC50 (THR beta-LBD) [nM] |
| --- | --- | --- | --- | --- | --- | --- |
| O=c1[nH]c(=O)n(-c2cc(Cl)c(Oc3ccc(O)c(S(=O)(=O)N4CCC(O)CC4)c3)c(Cl)c2)nc1C(F)F [Compound 16, 2-(3,5-dichloro-4-(4-hydroxy-3-((4-hydroxypiperidin-1-yl)sulfonyl)phenoxy)phenyl)-6-(difluoromethyl)-1,2,4-triazine-3,5(2H,4H)-dione] | A (85~110) | 2 to 200 | B (75~90) | < 2 |  |  |
| N#CC1(NS(=O)(=O)c2cc(Oc3c(Cl)cc(-n4nc(C(F)F)c(=O)[nH]c4=O)cc3Cl)ccc2O)CC1 [Compound 17, N-(1-cyanocyclopropyl)-5-(2,6-dichloro-4-(6-(difluoromethyl)-3,5-dioxo-4,5-dihydro-1,2,4-triazin-2(3H)-yl)phenoxy)-2-hydroxybenzenesulfonamide] | A (85~110) | 2 to 200 | A (90~110) | < 2 |  |  |
| O=c1[nH]c(=O)n(-c2cc(Cl)c(Oc3ccc(O)c(S(=O)(=O)N[C@H]4C[C@H](C(=O)NC5CC5)C4)c3)c(Cl)c2)nc1C(F)F [Compound 18] | B (40~85) | 200 to 1000 | B (75~90) | 2 to 20 |  |  |
| O=c1[nH]c(=O)n(-c2cc(Cl)c(Oc3ccc(O)c(S(=O)(=O)NC4CC4)c3)c(Cl)c2)nc1C(F)(F)F [Compound 19, N-cyclopropyl-5-[2,6-dichloro-4-[3,5-dioxo-6-(trifluoromethyl)-1,2,4-triazin-2-yl]phenoxy]-2-hydroxy-benzenesulfonamide] | A (85~110) | 2 to 200 | A (90~110) | < 2 |  |  |
| CNS(=O)(=O)c1cc(Oc2c(Cl)cc(-n3nc(C(F)(F)F)c(=O)[nH]c3=O)cc2Cl)ccc1O [Compound 20, 5-(2,6-dichloro-4-(3,5-dioxo-6-(trifluoromethyl)-4,5-dihydro-1,2,4-triazin-2(3H)-yl)phenoxy)-2-hydroxy-N-methylbenzenesulfonamide] | A (85~110) | 2 to 200 | A (90~110) | 2 to 20 |  |  |
| O=c1[nH]c(=O)n(-c2cc(Cl)c(Oc3ccc(O)c(S(=O)(=O)N4CCC(F)(F)CC4)c3)c(Cl)c2)nc1C(F)(F)F [Compound 21, 2-(3,5-dichloro-4-(3-((4,4-difluoropiperidin-1-yl)sulfonyl)-4-hydroxyphenoxy)phenyl)-6-(trifluoromethyl)-1,2,4-triazine-3,5(2H,4H)-dione] | B (40~85) | 2 to 200 | A (90~110) | 2 to 20 |  |  |
| CNC(=O)C1(NS(=O)(=O)c2cc(Oc3c(Cl)cc(-n4nc(C(F)F)c(=O)[nH]c4=O)cc3Cl)ccc2O)CC1 [Compound 22, 1-[[5-[2,6-dichloro-4-[6-(difluoromethyl)-3,5-dioxo-1,2,4-triazin-2-yl]phenoxy]-2-hydroxy-phenyl]sulfonylamino]-N-methyl-cyclopropane carboxamide] | B (40~85) | 200 to 1000 | B (75~90) | 2 to 20 |  |  |
| NC(=O)C1(NS(=O)(=O)c2cc(Oc3c(Cl)cc(-n4nc(C(F)F)c(=O)[nH]c4=O)cc3Cl)ccc2O)CC1 [Compound 24, 1-[[5-[2,6-dichloro-4-[6-(difluoromethyl)-3,5-dioxo-1,2,4-triazin-2-yl]phenoxy]-2-hydroxy-phenyl]sulfonylamino]cyclopropanecarboxamide] | A (85~110) | 2 to 200 | A (90~110) | < 2 |  |  |
| CNC(=O)C1(N[S@SP3](=O)(=O)c2cc(Oc3c(Cl)cc(-n4nc(C(F)(F)F)c(=O)[nH]c4=O)cc3Cl)ccc2O)CC1 [Compound 25, 1-((5-(2,6-dichloro-4-(3,5-dioxo-6-(trifluoromethyl)-4,5-dihydro-1,2,4-triazin-2(3H)-yl)phenoxy)-2-hydroxyphenyl)sulfonamido)-N-methylcyclopropane-1-carboxamide] | C (<40) | > 1000 | B (75~90) | 20 to 100 |  |  |
| N#CC1CC(N[S@SP3](=O)(=O)c2cc(Oc3c(Cl)cc(-n4nc(C(F)F)c(=O)[nH]c4=O)cc3Cl)ccc2O)C1 (stereo not drawn) [Compound 26, N-(3-cyanocyclobutyl)-5-[2,6-dichloro-4-[6-(difluoromethyl)-3,5-dioxo-1,2,4-triazin-2-yl]phenoxy]-2-hydroxy-benzenesulfonamide] | A (85~110) |  | A (90~110) |  | 2 to 200 | < 2 |
| O=c1[nH]c(=O)n(-c2cc(Cl)c(Oc3ccc(O)c(S(=O)(=O)N4CCC(F)(F)CC4)c3)c(Cl)c2)nc1C(F)F [Compound 27, 2-[3,5-dichloro-4-[3-[(4,4-difluoro-1-piperidyl)sulfonyl]-4-hydroxy-phenoxy]phenyl]-6-(difluoromethyl)-1,2,4-triazine-3,5-dione] | A (85~110) | < 2 | B (75~90) | < 2 |  |  |
| O=c1[nH]c(=O)n(-c2cc(Cl)c(Oc3ccc(O)c(S(=O)(=O)N4CCC4)c3)c(Cl)c2)nc1C(F)F [Compound 28, 2-(4-(3-(azetidin-1-ylsulfonyl)-4-hydroxyphenoxy)-3,5-dichlorophenyl)-6-(difluoromethyl)-1,2,4-triazine-3,5(2H,4H)-dione] | A (85~110) | < 2 | B (75~90) | < 2 |  |  |
| O=c1[nH]c(=O)n(-c2cc(Cl)c(Oc3ccc(O)c(S(=O)(=O)N[C@H]4CCOC4)c3)c(Cl)c2)nc1C(F)F [Compound 29, (S)-5-(2,6-dichloro-4-(6-(difluoromethyl)-3,5-dioxo-4,5-dihydro-1,2,4-triazin-2(3H)-yl)phenoxy)-2-hydroxy-N-(tetrahydrofuran-3-yl)benzenesulfonamide] | A (85~110) | 2 to 200 | A (90~110) | < 2 |  |  |
| O=c1[nH]c(=O)n(-c2cc(Cl)c(Oc3ccc(O)c(S(=O)(=O)N[C@@H]4CCOC4)c3)c(Cl)c2)nc1C(F)F [Compound 30, (R)-5-(2,6-dichloro-4-(6-(difluoromethyl)-3,5-dioxo-4,5-dihydro-1,2,4-triazin-2(3H)-yl)phenoxy)-2-hydroxy-N-(tetrahydrofuran-3-yl)benzenesulfonamide] | A (85~110) | < 2 | A (90~110) | < 2 |  |  |
| O=c1[nH]c(=O)n(-c2cc(Cl)c(Oc3ccc(O)c(S(=O)(=O)N4CCNCC4)c3)c(Cl)c2)nc1C(F)F [Compound 31, 2-(3,5-dichloro-4-(4-hydroxy-3-(piperazin-1-ylsulfonyl)phenoxy)phenyl)-6-(difluoromethyl)-1,2,4-triazine-3,5(2H,4H)-dione] | B (40~85) | 2 to 200 | C (<75) | 2 to 20 |  |  |
| O=C(C1CC1)N1CCN(S(=O)(=O)c2cc(Oc3c(Cl)cc(-n4nc(C(F)F)c(=O)[nH]c4=O)cc3Cl)ccc2O)CC1 [Compound 32, 2-(3,5-dichloro-4-(3-((4-(cyclopropanecarbonyl)piperazin-1-yl)sulfonyl)-4-hydroxyphenoxy)phenyl)-6-(difluoromethyl)-1,2,4-triazine-3,5(2H,4H)-dione] | C (<40) | 2 to 200 | C (<75) | 2 to 20 |  |  |
| CN1CCN(S(=O)(=O)c2cc(Oc3c(Cl)cc(-n4nc(C(F)F)c(=O)[nH]c4=O)cc3Cl)ccc2O)CC1=O [Compound 33, 2-(3,5-dichloro-4-(4-hydroxy-3-((4-methyl-3-oxopiperazin-1-yl)sulfonyl)phenoxy)phenyl)-6-(difluoromethyl)-1,2,4-triazine-3,5(2H,4H)-dione] | B (40~85) | 2 to 200 | C (<75) | < 2 |  |  |
| CO[C@H]1C[C@H](NS(=O)(=O)c2cc(Oc3c(Cl)cc(-n4nc(C(F)F)c(=O)[nH]c4=O)cc3Cl)ccc2O)C1 [Compound 36, 5-(2,6-dichloro-4-(6-(difluoromethyl)-3,5-dioxo-4,5-dihydro-1,2,4-triazin-2(3H)-yl)phenoxy)-2-hydroxy-N-((1r,3r)-3-methoxycyclobutyl)benzenesulfonamide] | B (40~85) | 2 to 200 | B (75~90) | 2 to 20 |  |  |
